US20140309295A1, “ANTIEPILEPTIC, HYPOCHOLESTEROLEMIC AND NEUROPROTECTIVE COMPOUND” (NEURON BIOPHARMA, S.A., priority 2009, published 2014)

Assays:
[1] = tested on: human neuroblastoma SK-N-MC cells; experiment: Protection against neuronal death induced by inhibition of PP1 (okadaic acid), WST-1; assay type: cell-based; settings: 40 μM NST0037; 20 nM okadaic acid
Protocol: The assay was performed on human neuroblastoma SK-N-MC cells in culture from the American Type Culture Collection (ATCC), in all cases strict rules of sterility were followed and the manipulation was performed in class II biological safety cabinets following European standard EN 12469. The cells were maintained in the following culture medium: Minimum Essential Medium Eagle (MEM) supplemented with 1 mM sodium pyruvate, 2 mM L-glutamine, 0.1 mM non-essential amino acids, 0.05 mg/ml gentamicin and 10% fetal bovine serum.
The inhibition caused by compound NST0037 of cell death caused by the treatment with okadaic acid (OA) which inhibits the activity of protein phosphatase 1 (PP1) was analyzed. OA is one of the most used drugs for studying the phosphorylation mechanism of the tau protein, involved in the pathogenesis and progression of AD. The inhibition of PP1 causes cytoskeleton alterations and mitochondrial damage. […]
The cells were incubated (at 37° C. and 5% CO2) with these treatments for 22 hours, after which time the WST-1 reagent (Roche) was added. […] The formazan which is formed can be detected colorimetrically since it has an absorbance of 440 nm. The reading was taken in a plate reader at 440 nm 2 hours after adding the reagent.

[2] = tested on: FVB/NHan mice inoculated with kainate (KA); experiment: Neuronal death in the hippocampus of mice caused by kainate (hematoxylin-eosin); assay type: in vivo; settings: 50 mg/kg i.p., 7 days
Protocol: All the animals included for the experimental process were 12-week old males of the FVB/NHan strain. The experiments were conducted strictly following the Guidance on the Operation of Animals (Scientific Procedures, Act. 1986). The animals had their respective quarantine period and were treated with maximum precaution to minimize possible contaminations for inoculations and handling. […]

ApoB100 mice = experiment: Hypocholesterolemic effect, oral 28 days, endogenous hyperlipidemia model; assay type: in vivo
Protocol: All the animals included for the experimental process were 12-week old female mice. The experiments were conducted strictly following the Guidance on the Operation of Animals (Scientific Procedures, Act. 1986). The animals had their respective quarantine period and were treated with maximum precaution to minimize possible contaminations for inoculations and handling.
The control group received this same vehicle. Before starting the treatments and at 7, 21 and 28 days of starting them, retro-orbital blood extractions after fasting for 16 hours were carried out. The plasma was obtained from said blood, in which the total cholesterol (TC), free cholesterol (FC), cholesterol (EC), HDL-c, LDL-c, VLDL-c and apoB100 levels were evaluated by enzymatic and spectrophotometric techniques. In order to check if the effect at the lipid level involved an alteration of the oxidative stress, the redox state in the plasmas obtained was furthermore evaluated by means of the TEAC (Trolox Antioxidant Capacity Assay) technique. This technique determines the antioxidant capacity in vitro, giving an idea of the redox state of the sample analyzed by means of the absorbance capacity by electron transfer. The different components of the reaction, myoglobin, ABTS (2,2-azino-bis-(3-ethylbenzthiazoline-sulfonic acid), […] H2O2 were added to the plasmas diluted 1/10 in PBS (10 μL) in a 96-well plate. After 3 minutes of incubation, the absorbance was measured at 405 nm (with a reference of 600 nm).

## CCC(CC)C(=O)O[C@H]1C[C@@H](C)C=C2C=C[C@H](C)[C@H](CC[C@@H]3C[C@@H](O)CC(=O)O3)[C@H]21 [NST0037, (1S,2S,6R,8S,8aR)-1,2,6,7,8,8a-hexahydro-3,7-dimethyl-8-[2-[(2R,4R)-tetrahydro-4-hydroxy-6-oxo-2H-pyran-2-yl]ethyl]-1-naphthalenyl-2-ethyl-butyrate]
[1]
  protection against death caused by OA: 57%
[2]; NST0037+KA+NST0037 regimen, KA 25 mg/Kg
  neuronal death in hippocampal CA1 and CA2 regions: completely protected against neuronal death
[2]; PBS+KA+NST0037 regimen (treatment after KA)
  neuronal death in hippocampal CA1 and CA2 regions: qualitatively reduced neuronal death and damage
ApoB100 mice; 50 mg/kg oral, 7, 21 and 28 days
  FC and EC levels: reduction of the FC and EC levels
ApoB100 mice; 50 mg/kg oral, 28 days
  HDL: reduction of VLDL and HDL
  LDL: smaller increase of LDL
  VLDL: reduction of VLDL
  apolipoprotein B (apoB) levels: visibly reduced
  redox state of the plasmas (TEAC): decrease the redox state
ApoB100 mice; 50 mg/kg oral, 28 days, female apoB100 mice
  plasma total cholesterol levels: significantly reducing the plasma total cholesterol levels
